# Measurements reported in patent publication US20250320458A1, “CARDIOMYOCYTE SUBTYPES AND METHODS OF MAKING AND USING” (University Health Network, priority 2021, published 2025).
# B1: BMP4: Recombinant human BMP4 (R&D), BMP pathway agonist (protein, UniProt P12644 293-408, looked up)
# Bone morphogenetic protein 4: SPKHHSQRARKKNKNCRRHSLYVDFSDVGWNDWIVAPPGYQAFYCHGDCPFPLADHLNSTNHAIVQTLVNSVNSSIPKACCVPTELSAISMLYLDEYDKVVLKNYQEMVVEGCGCR
# What was measured:
# Format in all cases: cell-based, human
# aSHF progenitors [1] = experiment: BMP pathway agonist/antagonist treatment of day 5 aSHF progenitors, RT-qPCR 24 hours after treatment; details: for expression of genes indicative of aSHF (FGF8 and ISL1), pSHF (HOXB1) and FHF (HAND1) fates in the aSHF population: 10 ng/mL BMP4 or 0.1 μM LDN, ROH added, 24 hours after treatment (FIG. 5C)
# Protocol: (§1) RNA extraction was performed using the RNAqueous-micro Kit (Invitrogen). Purified RNA was treated with RNase-free DNase (Invitrogen), and then reverse transcribed into cDNA using oligo (dT) primers and random hexamers and iscript Reverse Transcriptase (ThermoFisher). QRT-PCR was performed on an EP Real-Plex MasterCycler (Eppendorf) using QuantiFast SYBR Green PCR kit (QIAGEN). The copy number of each gene was determined based on a standard curve plotted with human genome DNA with known copy number. The relative expression levels of genes were obtained by normalizing their copy number to that of TBP.
# (§2) The above observation that the aSHF progenitors express genes involved in Bmp signaling is consistent with the known role of this pathway in the development of right ventricular cardiomyocytes from aSHF progenitors in the mouse. […] The notable exception is the genes for the ligands BMP2 and BMP4, which are also highly expressed in the FHF lineage (FIG. 5B). To determine if BMP plays a role in the differentiation of the aSHF progenitors to derivative lineages, the day 5 cells were treated with either a pathway agonist (10 ng/mL BMP4) or antagonist (0.1 μM LDN) and then the population was analyzed 24 hours after the treatments. FHF and pSHF progenitors were included in the analyses, and ROH was added to the cultures of pSHF and aSHF progenitor, given that both populations display ALDH activity. […] Inhibition of the pathway did, however, lead to upregulation of genes associated with pharyngeal progenitors (FOXC2 and SIX1) (FIG. 5D) and downregulation of those indicative of cardiomyocyte development (UNC45B and GATA4) (FIG. 5E). To further investigate the consequences of BMP manipulation, the agonist/antagonist treatment was extended for an additional 48 hours and then the treated cells were cultured for 12 days to promote cardiomyocyte development. FHF and pSHF progenitors also were cultured for 20 days without manipulation of BMP signaling. All 3 progenitor populations generated TNNT2^+/SIRPa^+ cardiomyocytes by day 20 of differentiation (FIGS. 5F and 5G). In addition to the cardiomyocytes, the aSHF-derived population also contained PDGFR-beta^+ mesenchymal cells (FIG. 5F).
# aSHF progenitors [2] = experiment: Extended BMP agonist/antagonist treatment of aSHF progenitors, day 20 flow cytometry and cell numbers; details: treatment extended additional 48 hours, then cultured 12 days; day 20 (FIGS. 5F and 5H)
# Protocol: Cells of early stages (day 3 to day 6) were dissociated with TrypLE for 3-5 minutes at room temperature to single cells, which were then filtered and transferred to IMDM media. Day 20 EBs were dissociated with 0.5 mg/ml collagenase type 2 (Worthington) in HANKs buffer for 1.5 hours at 37° C. The filtered day 20 cells were then transferred to FACS buffer consisting of PBS with 5% fetal calf serum (Wisent) and 0.02% sodium azide. The following antibodies were used for staining samples obtained from various stages of differentiation: anti-PDGFRa-PE (R&D Systems, 1:20), anti-CD235a/b-APC (BD PharMingen, 1:200), anti-SIRPa-PeCy7 (Biolegend, 1:2000), anti-CXCR4 (Biolegend, 1:100), anti-CDId-PE (Biolegend, 1:100), anti-CD49c-PE (ThermoFisher, 1:100), anti-cardiac isoform of CTNT (ThermoFisher Scientific, 1:2000), or anti-myosin light chain 2 (Abcam, 1:1000). For unconjugated primary antibodies, the following secondary antibodies were used for detection: goat anti-mouse IgG-APC (BD Pharmigen, 1:250), or donkey anti-rabbit IgG-PE (Jackson ImmunoResearch, 1:250). Detailed antibody information is described in Table 2.
# To stain live cells with cell-surface protein, dissociated single cells were stained for 15 minutes at room temperature in FACS buffer and washed twice before they were subject to further analyses. For intracellular staining, cells were fixed for 15 min at 4° C. in PBS containing 4% PFA followed by permeabilization using 90% methanol for 15 min at 4° C. The permeabilized cells were washed with PBS containing 0.5% BSA (Sigma) twice and stained with unconjugated primary antibodies in FACS buffer for 18 hours at 4° C. Stained cells were washed with PBS with 0.5% BSA and stained with proper secondary antibodies in FACS buffer for 30 mins at 4° C. Following washing steps, stained cells were processed with the Fortessa (BD) and analyzed using FlowJo software (Tree Star). For cell sorting, stained cells were kept in StemPro-34 media and sorted using Influx (BD), FACSAriall (BD), MoFlo-XDP (BD) and FACSAria Fusion (BD). Data were analyzed using FlowJo software (Tree Star).
# as §2, with “All 3 progenitor populations generated TNNT2^+/SIRPa^+ cardiomyocytes by day 20 of differentiation (FIGS. 5F and 5G). In addition to the cardiomyocytes, the aSHF-derived population also contained PDGFR-beta^+ mesenchymal cells (FIG. 5F).” left out
# aSHF cells = experiment: Extended BMP agonist/antagonist treatment of aSHF cells, day 20 RT-qPCR; details: aSHF cells treated with LDN
# Protocol: as §1
# The above observation that the aSHF progenitors express genes involved in Bmp signaling is consistent with the known role of this pathway in the development of right ventricular cardiomyocytes from aSHF progenitors in the mouse. […] The notable exception is the genes for the ligands BMP2 and BMP4, which are also highly expressed in the FHF lineage (FIG. 5B). To determine if BMP plays a role in the differentiation of the aSHF progenitors to derivative lineages, the day 5 cells were treated with either a pathway agonist (10 ng/mL BMP4) or antagonist (0.1 μM LDN) and then the population was analyzed 24 hours after the treatments. […]
# [3] = test system: day 4 pSHF cells (ALDH CXCR4−); experiment: Retinol treatment of isolated day 4 pSHF cells, RT-qPCR of progenitor markers; details: retinol 2 μM vs DMSO, 24 hours
# Protocol: (§3) At day 1, the EBs were transferred to mesoderm induction media consisting of base media, 5 ng/mL rhbFGF (R&D), and various concentration of rhBMP4 (R&D) and rhActivinA (R&D) as described in the results section. At day 3, the EBs were transferred to the media consisting of base media, 2 μM Wnt inhibitor IWP2 (TOCRIS) and 10 ng/ml rhVEGF (R&D). From day 5 to day 12, the EBs were transferred to base media with 5 ng/mL rhVEGF. From day 12 to day 20, the EBs were transferred to base media and cultured in a normoxic environment (5% CO2, 20% O2). For pSHF lineage differentiation, the day 4 sorted pSHF cells were treated with 2 μM Retinol (Sigma) from day 4 to day 8. Similarly, the sorted aSHF cells were treated with 2 μM Retinol and 10 ng/mL rhBMP4 from day 5 to day 8 of differentiation.
# as §1, with “TBP. […]” for “TBP.”
# day 5 aSHF cells = experiment: Retinol treatment of day 5 aSHF cells, RT-qPCR of RA-responsive genes; details: ROH for 24 hours vs DMSO, RT-qPCR day 6 (FIG. 4J)
# Protocol: as §3, with “Similarly, the sorted aSHF cells were treated with 2 μM Retinol and 10 ng/mL rhBMP4 from day 5 to day 8 of differentiation.” left out
# RNA extraction was performed using the RNAqueous-micro Kit (Invitrogen). […] QRT-PCR was performed on an EP Real-Plex MasterCycler (Eppendorf) using QuantiFast SYBR Green PCR kit (QIAGEN). The copy number of each gene was determined based on a standard curve plotted with human genome DNA with known copy number. […]
# The pSHF lineage expressed ALDH1A2 and RDH10, from the day 3 mesoderm stage onward, whereas expression of these genes was not detected until day 4 of differentiation in the aSHF lineage (FIG. 4G). These patterns correlate well with ALDH activity, which was detected in more than 90% of the days 4 and 5 pSHF cells. […] ALDH was not detected in the day 5 FHF population. […]
Molecule,"expression of genes indicative of aSHF (FGF8 and ISL1), pSHF (HOXB1) and FHF (HAND1) fates in the aSHF population (aSHF progenitors [1])","expression of genes associated with pharyngeal progenitors (FOXC2 and SIX1) (aSHF progenitors [1]; 0.1 μM LDN, 24 hours after treatment (FIG. 5D))","expression of genes indicative of cardiomyocyte development (UNC45B and GATA4) (aSHF progenitors [1]; 0.1 μM LDN, 24 hours after treatment (FIG. 5E))",PDGFR-beta+ cells in the aSHF-derived population (number / size of fraction) (aSHF progenitors [2]),proportion of cardiomyocytes in the aSHF-derived population (aSHF progenitors [2]),expression of the ventricular cardiomyocyte markers IRX4 and MY1.2 (aSHF cells),levels of PDGFRB (aSHF cells),expression of the RA responsive gene CYP26A1 and the pSHF progenitor markers HOXA1 and HOXB1 ([3]; RT-qPCR (FIG. 3H)),"expression of aSHF progenitor markers FGF10, FOXC1 and FOXC2 ([3]; RT-qPCR (FIG. 3I))",expression of the RA-responsive gene CYP26A1 and HOXB1 (day 5 aSHF cells),number of cardiomyocytes in the aSHF-derived population (aSHF progenitors [2])
"c1ccc2c(-c3cnn4cc(-c5ccc(N6CCNCC6)cc5)cnc34)ccnc2c1 [LDN, LDN 193189]",did not alter,upregulation,downregulation,increased,reduced,decrease,elevated,–,–,–,–
"CC1=C(/C=C/C(C)=C/C=C/C(C)=C/CO)C(C)(C)CCC1 [ROH, Retinol]",–,–,–,–,–,–,–,upregulation,downregulated,upregulation,–
B1,did not alter,–,–,reducing,increased,–,–,–,–,–,increased
